In ChEMBL document CHEMBL1201862, “PubChem BioAssay data set” (2004):
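Compound exposure: 48 hours, 5 concentrations, 96-well plates. GI50 is the concentration that inhibits growth by half.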 Calls of active or inactive are those of the source. Rule as the data show it: active = GI50 up to about 1.1 µM and inactive = higher.

What was measured:
Experiment in all cases: growth of human tumour cells (NCI), 48 h
HOP-92 = tested on: HOP-92
SK-MEL-2 = tested on: SK-MEL-2
NCI-H460 = tested on: NCI-H460
MDA-N = tested on: MDA-N
OVCAR-4 = tested on: OVCAR-4
RPMI-8226 = tested on: RPMI-8226
SR = tested on: SR
HL-60 = tested on: HL-60
SF-295 = tested on: SF-295
TK-10 = tested on: TK-10
K562 = tested on: K562
DU-145 = tested on: DU-145
Hs-578T = tested on: Hs-578T
MDA-MB-435 = tested on: MDA-MB-435
UACC-62 = tested on: UACC-62
SW-620 = tested on: SW-620
SK-OV-3 = tested on: SK-OV-3
SF-539 = tested on: SF-539
CAKI-1 = tested on: CAKI-1
NCI/ADR-RES = tested on: NCI/ADR-RES

Row | SMILES | GI50 (HOP-92) | GI50 (SK-MEL-2) | GI50 (NCI-H460) | GI50 (MDA-N) | GI50 (OVCAR-4) | GI50 (RPMI-8226) | GI50 (SR) | GI50 (HL-60) | GI50 (SF-295) | GI50 (TK-10) | GI50 (K562) | GI50 (DU-145) | GI50 (Hs-578T) | GI50 (MDA-MB-435) | GI50 (UACC-62) | GI50 (SW-620) | GI50 (SK-OV-3) | GI50 (SF-539) | GI50 (CAKI-1) | GI50 (NCI/ADR-RES)
1 | CN1CCN(C(=S)N(C(=O)c2cccs2)C2CCCCC2)CC1 | > 100 µM (inactive) | > 100 µM (inactive) | > 100 µM (inactive) | > 100 µM (inactive) | > 100 µM (inactive) | > 100 µM (inactive) | > 100 µM (inactive) | 24.8 µM (inactive) | > 10 µM (inactive) | > 100 µM (inactive) | > 100 µM (inactive) | > 100 µM (inactive) | > 100 µM (inactive) | > 100 µM (inactive) | > 100 µM (inactive) | > 100 µM (inactive) |  |  |  | 
2 | O=C1c2c(O)cccc2C(C(=O)CCCC(=O)C2c3cccc(O)c3C(=O)c3c(O)cccc32)c2cccc(O)c21 | 0.217 µM (active) | 0.322 µM (active) | 0.0803 µM (active) | 0.442 µM (active) | 0.0867 µM (active) | 0.0679 µM (active) | 0.321 µM (active) | 0.0824 µM (active) | 0.243 µM (active) | 0.547 µM (active) | 0.11 µM (active) | 0.519 µM (active) | 0.0665 µM (active) | 0.746 µM (active) | 0.327 µM (active) | 0.244 µM (active) | 0.353 µM (active) | 0.179 µM (active) | 1.27 µM (inactive) | 
3 | C[C@H](NC(=O)c1ccc(CNC(=O)/C=C/c2cccc(Oc3ccccc3)c2)cc1)c1ccccc1 | > 100 µM (inactive) | > 100 µM (inactive) | > 100 µM (inactive) | > 100 µM (inactive) | 83.2 µM (inactive) | > 100 µM (inactive) | 26.8 µM (inactive) |  | 40.8 µM (inactive) | 61.4 µM (inactive) | > 100 µM (inactive) | > 100 µM (inactive) | 49.9 µM (inactive) | > 100 µM (inactive) | > 100 µM (inactive) | > 100 µM (inactive) | > 100 µM (inactive) | 27 µM (inactive) | 22.6 µM (inactive) | > 100 µM (inactive)
4 | CCCCC/C=C1\CC(CO)(COC(=O)CC(C(C)C)C(C)C)OC1=O (configuration not stated) | 3.66 µM (inactive) | 20.3 µM (inactive) | 16.4 µM (inactive) | 8.15 µM (inactive) | 30 µM (inactive) |  | 28.6 µM (inactive) |  | 5.52 µM (inactive) | 14.2 µM (inactive) | 6.84 µM (inactive) | 15.6 µM (inactive) | 4.62 µM (inactive) | 8.59 µM (inactive) | 19.4 µM (inactive) | 29.3 µM (inactive) | 19.1 µM (inactive) |  | 9.42 µM (inactive) | 20.3 µM (inactive)
5 | Cc1nc2ccccc2n1Cc1ccc(NC(=S)NC2CCCCC2)cc1 | 41.3 µM (inactive) | 15.7 µM (inactive) | 35.5 µM (inactive) | 5.79 µM (inactive) | 10.1 µM (inactive) | 13.4 µM (inactive) |  | 25.6 µM (inactive) | 10.1 µM (inactive) | > 100 µM (inactive) | 14.7 µM (inactive) | 36.8 µM (inactive) | 29 µM (inactive) | 6.84 µM (inactive) | 6.3 µM (inactive) | 41.3 µM (inactive) | > 92.7 µM (inactive) | > 72.3 µM (inactive) | 38 µM (inactive) | 35.6 µM (inactive)
6 | CC1(C)[C@@H](Cn2cc(I)c(=O)[nH]c2=O)CC[C@@]1(C)CO | > 100 µM (inactive) | > 100 µM (inactive) |  | > 100 µM (inactive) | > 100 µM (inactive) |  |  |  | > 100 µM (inactive) | > 100 µM (inactive) | 45.1 µM (inactive) | > 100 µM (inactive) | > 100 µM (inactive) | > 100 µM (inactive) | > 100 µM (inactive) | > 100 µM (inactive) | > 100 µM (inactive) |  | > 100 µM (inactive) | > 100 µM (inactive)
7 | Clc1ccc2c(NCCNC3CCCCC3)ccnc2c1 | 5.56 µM (inactive) | 3.22 µM (inactive) |  | 2.29 µM (inactive) | 11.6 µM (inactive) | 3.44 µM (inactive) |  | 2.42 µM (inactive) | 3.34 µM (inactive) | 2.7 µM (inactive) | 2.12 µM (inactive) | 16.1 µM (inactive) | 2.54 µM (inactive) | 3.04 µM (inactive) | 4.28 µM (inactive) | 12.2 µM (inactive) | 13.9 µM (inactive) |  | 5.41 µM (inactive) | 11.4 µM (inactive)
8 | COc1cc(-c2oc3c(OC)c(O)c(OC)c(O)c3c(=O)c2OC)ccc1O |  | 24.8 µM (inactive) | 46.1 µM (inactive) | 48.1 µM (inactive) | 74.1 µM (inactive) | 26.1 µM (inactive) | 41.5 µM (inactive) | 33.5 µM (inactive) | 44.9 µM (inactive) | 31.3 µM (inactive) | 58.6 µM (inactive) | 32 µM (inactive) | 14.9 µM (inactive) | 17.8 µM (inactive) | 20.7 µM (inactive) | 94.4 µM (inactive) | 17.9 µM (inactive) | 40.4 µM (inactive) | 24.8 µM (inactive) | 50.8 µM (inactive)
9 | O=[As](O)(O)c1ccc(NCc2ccccc2)cc1 | > 100 µM (inactive) | > 100 µM (inactive) | > 100 µM (inactive) | > 100 µM (inactive) | > 100 µM (inactive) | > 100 µM (inactive) | > 100 µM (inactive) |  | > 100 µM (inactive) | > 100 µM (inactive) | > 100 µM (inactive) | > 100 µM (inactive) | 58.9 µM (inactive) | > 100 µM (inactive) | > 100 µM (inactive) |  |  |  | > 100 µM (inactive) | > 100 µM (inactive)
10 | C[C@H](O)C1CC(Cn2nnc3c(N)ncnc32)C1(C)C (some centres not stated) | > 100 µM (inactive) | > 100 µM (inactive) |  | > 100 µM (inactive) | > 100 µM (inactive) |  |  |  | > 100 µM (inactive) | > 100 µM (inactive) | < 0.01 µM (active) | > 100 µM (inactive) | > 100 µM (inactive) | > 100 µM (inactive) | 5.36 µM (inactive) | > 100 µM (inactive) | > 100 µM (inactive) | > 100 µM (inactive) | > 100 µM (inactive) | > 100 µM (inactive)
11 | Cc1c(/C=N/NC(=S)Nc2ccc(Cl)cc2)c(=O)n(-c2ccccc2)n1C |  | 21.6 µM (inactive) | 25.4 µM (inactive) | > 100 µM (inactive) | 24.5 µM (inactive) | 39.1 µM (inactive) | 4.93 µM (inactive) | > 100 µM (inactive) | 18.4 µM (inactive) | 23.6 µM (inactive) | > 100 µM (inactive) | 42.7 µM (inactive) | 18.3 µM (inactive) | > 100 µM (inactive) | > 48.5 µM (inactive) | > 78.5 µM (inactive) | 18.2 µM (inactive) | 15 µM (inactive) | 9.75 µM (inactive) | 17.3 µM (inactive)
12 | O=C1C=CC=C/C1=C1\N=C(c2ccccc2OCC(=O)c2ccc(Br)cc2)SS1 | 63.8 µM (inactive) | 42.5 µM (inactive) | > 100 µM (inactive) | > 100 µM (inactive) | 40.1 µM (inactive) | > 100 µM (inactive) |  | > 100 µM (inactive) | 28.2 µM (inactive) | 13.5 µM (inactive) | > 100 µM (inactive) | > 100 µM (inactive) | 15.2 µM (inactive) | > 100 µM (inactive) | 23.1 µM (inactive) | > 100 µM (inactive) | 34.3 µM (inactive) | 24.4 µM (inactive) | 34.6 µM (inactive) | > 100 µM (inactive)
13 | OC(C#Cc1ccccc1)(c1ccccc1)c1ccccc1 |  | 23.8 µM (inactive) | 20.9 µM (inactive) | 23.4 µM (inactive) | 41.8 µM (inactive) | 16.4 µM (inactive) | 37.4 µM (inactive) | 38.6 µM (inactive) | 30.3 µM (inactive) | 31 µM (inactive) | 34.3 µM (inactive) | 30.1 µM (inactive) | 54.8 µM (inactive) | 24.3 µM (inactive) | 35.4 µM (inactive) | 28.4 µM (inactive) | > 100 µM (inactive) | 77.1 µM (inactive) | 22.4 µM (inactive) | 36.6 µM (inactive)
14 | O=C1CC2C=CC(O)C(C1)C2 (configuration not stated) |  | > 100 µM (inactive) | > 100 µM (inactive) | > 100 µM (inactive) | > 100 µM (inactive) | > 100 µM (inactive) | < 0.01 µM (active) | > 100 µM (inactive) | > 100 µM (inactive) | > 100 µM (inactive) | > 100 µM (inactive) | > 100 µM (inactive) | 21 µM (inactive) | > 100 µM (inactive) | > 100 µM (inactive) | > 100 µM (inactive) | > 100 µM (inactive) | > 100 µM (inactive) |  | > 100 µM (inactive)
15 | CC(C)=CCC/C(C)=C/CC/C(C)=C/CC/C(C)=C/CC/C(C)=C/CC/C(C)=C/CC/C(C)=C/CC/C(C)=C/CC/C(C)=C/CO [SOLANESOL] | > 100 µM (inactive) | > 100 µM (inactive) | > 100 µM (inactive) | > 100 µM (inactive) | > 100 µM (inactive) | > 100 µM (inactive) | > 100 µM (inactive) | 77.4 µM (inactive) | > 100 µM (inactive) | > 100 µM (inactive) | > 100 µM (inactive) | > 100 µM (inactive) | > 100 µM (inactive) | > 100 µM (inactive) | > 100 µM (inactive) | > 100 µM (inactive) | > 100 µM (inactive) | > 100 µM (inactive) | > 100 µM (inactive) | 
